The values below come from patent publication US20240286998A1, “F[…], ANALOGUES THEREOF, AND METHODS USING SAME” (Saint Joseph's University, priority 2021, published 2024).

By EC50 is commonly meant the concentration at which the effect is half-maximal.

The structures appear in SMILES notation.

The target in assay [1] is 5-HT2B (Homo sapiens (Human), UniProt P41595). The assay is described as follows: 5-HT2B Gq-mediated calcium flux functional assay. The format is cell-based. Particulars: for 5-HT2B-Ca2+ FLUX Emax (% 5-HT): IA = Inactive, N=1-3. In general terms: Calcium flux is commonly read through the fluorescence of an indicator in the cells.
In assay [2] the target is 5-HT1A (Homo sapiens (Human), UniProt P08908). Briefly: 5-HT1A Gi/o-mediated cAMP inhibition, GloSensor assay. The class given is cell-based. The settings on record: for 5-HT1A-cAMP Emax (% 5-HT): cAMP inhibition, 0.2 μM isoproterenol, IA = Inactive.
The target in assay [3] is 5-HT2C (Homo sapiens (Human), UniProt P28335). Briefly: 5-HT2C Gq-mediated calcium flux functional assay. The class given is cell-based. Particulars: for 5-HT2C-Ca2+ FLUX Emax (% 5-HT): IA = Inactive, N=1-3.
The target of assay [4] is 5-HT2A (Homo sapiens (Human), UniProt P28223). Briefly: 5-HT2A Gq-mediated calcium flux functional assay. The format is cell-based. Particulars: for 5-HT2A-Ca2+ FLUX Emax (% 5-HT): IA = Inactive, N=1-3.
The target of assay [5] is Serotonin 5-HT2A (human) (Homo sapiens (Human), UniProt P28223). Briefly: 5-HT2A receptor binding, [3H]-ketanserin competition in membrane fractions. The settings on record: 1 nM [3H]-ketanserin, Cheng-Prusoff, N=1-3.

5-HT2B, sequence (P41595 whole entry): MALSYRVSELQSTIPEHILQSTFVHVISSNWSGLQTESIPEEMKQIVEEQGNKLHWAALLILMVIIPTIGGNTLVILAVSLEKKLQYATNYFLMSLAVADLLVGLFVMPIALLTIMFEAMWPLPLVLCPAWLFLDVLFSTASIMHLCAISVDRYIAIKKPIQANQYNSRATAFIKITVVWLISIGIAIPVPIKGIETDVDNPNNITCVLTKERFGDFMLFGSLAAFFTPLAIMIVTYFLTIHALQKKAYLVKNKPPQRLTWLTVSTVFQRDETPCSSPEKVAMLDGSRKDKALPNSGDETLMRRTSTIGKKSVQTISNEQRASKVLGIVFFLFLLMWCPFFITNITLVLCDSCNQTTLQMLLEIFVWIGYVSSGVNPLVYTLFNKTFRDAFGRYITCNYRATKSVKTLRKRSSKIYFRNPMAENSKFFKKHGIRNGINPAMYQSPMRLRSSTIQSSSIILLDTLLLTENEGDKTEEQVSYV
5-HT2C, sequence (P28335 whole entry, looked up): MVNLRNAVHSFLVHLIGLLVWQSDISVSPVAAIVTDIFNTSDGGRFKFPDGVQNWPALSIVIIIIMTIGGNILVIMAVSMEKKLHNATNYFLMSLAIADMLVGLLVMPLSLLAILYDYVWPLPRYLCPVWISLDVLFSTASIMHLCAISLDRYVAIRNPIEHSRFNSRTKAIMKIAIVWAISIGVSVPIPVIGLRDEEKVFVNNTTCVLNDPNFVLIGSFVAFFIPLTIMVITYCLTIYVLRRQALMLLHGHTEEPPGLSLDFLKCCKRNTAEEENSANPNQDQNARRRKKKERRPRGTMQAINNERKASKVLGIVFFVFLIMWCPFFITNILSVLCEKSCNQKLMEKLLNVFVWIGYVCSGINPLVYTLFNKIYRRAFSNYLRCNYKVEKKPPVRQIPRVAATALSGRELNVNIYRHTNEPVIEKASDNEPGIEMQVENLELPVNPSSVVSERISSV

`CC(C)N(C)CCc1c[nH]c2ccc(F)cc12` [Example 2, N-(2-(5-fluoro-1H-indol-3-yl)ethyl)-N-methylpropan-2-amine]: in assay [1], the EC50 is 3.31 nM and the “5-HT2B-Ca2+ FLUX Emax (% 5-HT)” value turned out to be 68.6 ± 1.7 % 5-HT. In assay [2], the EC50 is 1820 nM and the “5-HT1A-cAMP Emax (% 5-HT)” value amounted to 93.2 ± 4.7 % 5-HT. Further, in assay [3], the EC50 was 21.9 nM and the “5-HT2C-Ca2+ FLUX Emax (% 5-HT)” value is 64.6 ± 1.7 % 5-HT. For the same compound, in assay [4], the EC50 was 1.95 nM and the “5-HT2A-Ca2+ FLUX Emax (% 5-HT)” value amounted to 95.1 ± 0.8 % 5-HT. In addition, the “5-HT2A pKi ± SEM” value in assay [5] stood at 6.36 ± 0.003.
As for `CCC(C)N(CCc1c[nH]c2ccc(F)cc12)C(C)C` (centres unmarked) [compound 32, N-(2-(5-fluoro-1H-indol-3-yl)ethyl)-N-isopropylbutan-2-amine], in assay [1], the EC50 was 0.955 nM and the “5-HT2B-Ca2+ FLUX Emax (% 5-HT)” value stood at 108.0 ± 1.8 % 5-HT. For the same compound, in assay [2], it took 1260 nM to reach a half-maximal effect (EC50) and the “5-HT1A-cAMP Emax (% 5-HT)” value amounted to 88.5 ± 2.8 % 5-HT. For the same compound, in assay [3], the EC50 was 64.6 nM and the “5-HT2C-Ca2+ FLUX Emax (% 5-HT)” value came to 101.5 ± 2.7 % 5-HT. For the same compound, in assay [4], the EC50 was 1.12 nM and the “5-HT2A-Ca2+ FLUX Emax (% 5-HT)” value was 106.8 ± 1.7 % 5-HT. Moreover, in assay [5], the “5-HT2A pKi ± SEM” value turned out to be 5.86 ± 0.16.
Take `C=CCN(CC)CCc1c[nH]c2ccc(F)cc12` [compound 36, N-ethyl-N-(2-(5-fluoro-1H-indol-3-yl)ethyl)prop-2-en-1-amine]: in assay [1], the concentration giving a half-maximal response (EC50) is 1.74 nM and the “5-HT2B-Ca2+ FLUX Emax (% 5-HT)” value stood at 104.5 ± 2.0 % 5-HT. Further, in assay [2], the concentration for a half-maximal effect (EC50) is 56.2 nM and the “5-HT1A-cAMP Emax (% 5-HT)” value stood at 98.4 ± 1.5 % 5-HT. In assay [3], the 50% effective concentration (EC50) is 17 nM and the “5-HT2C-Ca2+ FLUX Emax (% 5-HT)” value is reported as 101.5 ± 1.9 % 5-HT. Further, in assay [4], the EC50 is 1.2 nM and the “5-HT2A-Ca2+ FLUX Emax (% 5-HT)” value was found to be 104.8 ± 2.0 % 5-HT. Further, in assay [5], the “5-HT2A pKi ± SEM” value is recorded as 6.13 ± 0.08.
Regarding `CCC(C)N(CC)CCc1c[nH]c2ccc(F)cc12` (centres unmarked) [compound 30, N-ethyl-N-(2-(5-fluoro-1H-indol-3-yl)ethyl)butan-2-amine], in assay [1], the EC50 was 3.47 nM and the “5-HT2B-Ca2+ FLUX Emax (% 5-HT)” value is given as 83.8 ± 2.1 % 5-HT. Besides, in assay [2], the response was half-maximal at 468 nM (EC50) and the “5-HT1A-cAMP Emax (% 5-HT)” value came out at 104.0 ± 3.1 % 5-HT. Also, in assay [3], the EC50 is 148 nM and the “5-HT2C-Ca2+ FLUX Emax (% 5-HT)” value came out at 72.2 ± 2.9 % 5-HT. In assay [4], the EC50 was 2.45 nM and the “5-HT2A-Ca2+ FLUX Emax (% 5-HT)” value turned out to be 93.2 ± 1.7 % 5-HT. Also, the “5-HT2A pKi ± SEM” value in assay [5] is listed as 5.70 ± 0.39.
Turning to `CCCN(CC)CCc1c[nH]c2c(F)c(F)c(F)cc12` [compound 165, N-ethyl-N-[2-(5,6,7-trifluoro-1H-indol-3-yl)ethyl]propan-1-amine], in assay [1], the EC50 is 7.41 nM and the “5-HT2B-Ca2+ FLUX Emax (% 5-HT)” value stood at 102.4 ± 0.8 % 5-HT. Moreover, in assay [3], the EC50 is 38.9 nM and the “5-HT2C-Ca2+ FLUX Emax (% 5-HT)” value is reported as 102.8 ± 1.7 % 5-HT. Further, in assay [4], the EC50 was 4.57 nM and the “5-HT2A-Ca2+ FLUX Emax (% 5-HT)” value stood at 103.0 ± 0.8 % 5-HT. The “5-HT2A pKi ± SEM” value in assay [5] was 6.69.
For `C#CCN(CCC)CCc1c[nH]c2c(F)cccc12` [compound 180, N-(2-(7-fluoro-1H-indol-3-yl)ethyl)-N-propylprop-2-yn-1-amine], in assay [1], the EC50 was 38 nM and the “5-HT2B-Ca2+ FLUX Emax (% 5-HT)” value amounted to 92.7 ± 1.2 % 5-HT. For the same compound, in assay [3], the EC50 is 631 nM and the “5-HT2C-Ca2+ FLUX Emax (% 5-HT)” value is recorded as 56.5 ± 2.1 % 5-HT. In assay [4], the EC50 was 79.4 nM and the “5-HT2A-Ca2+ FLUX Emax (% 5-HT)” value is on record as 80.7 ± 1.6 % 5-HT. Further, the “5-HT2A pKi ± SEM” value in assay [5] turned out to be 5.75.
Take `CCN(C)CCc1c[nH]c2cc(F)c(Cl)cc12` [compound 179, 2-(5-chloro-6-fluoro-1H-indol-3-yl)-N-ethyl-N-methylethan-1-amine]: in assay [1], the EC50 is 10.7 nM and the “5-HT2B-Ca2+ FLUX Emax (% 5-HT)” value turned out to be 67.8 ± 0.6 % 5-HT. In assay [3], the EC50 is 22.9 nM and the “5-HT2C-Ca2+ FLUX Emax (% 5-HT)” value was 95.5 ± 1.0 % 5-HT. In assay [4], the half-maximal effective concentration (EC50) is 10.7 nM and the “5-HT2A-Ca2+ FLUX Emax (% 5-HT)” value worked out at 79.3 ± 0.7 % 5-HT. In addition, the “5-HT2A pKi ± SEM” value in assay [5] is listed as 6.93.
With `C=CCN(CCc1c[nH]c2ccc(F)cc12)C(C)C` [Example 11, N-(2-(5-fluoro-1H-indol-3-yl)ethyl)-N-isopropylprop-2-en-1-amine], in assay [1], the EC50 is 0.794 nM and the “5-HT2B-Ca2+ FLUX Emax (% 5-HT)” value came to 98.8 ± 1.6 % 5-HT. Besides, in assay [2], the midpoint of the response, the EC50, lay at 151 nM and the “5-HT1A-cAMP Emax (% 5-HT)” value is recorded as 95.5 ± 1.7 % 5-HT. Moreover, in assay [3], the EC50 is 20.4 nM and the “5-HT2C-Ca2+ FLUX Emax (% 5-HT)” value stood at 101.5 ± 2.8 % 5-HT. Also, in assay [4], the EC50 was 0.617 nM and the “5-HT2A-Ca2+ FLUX Emax (% 5-HT)” value was 105.4 ± 2.1 % 5-HT.
